Here are results for one compound from article PMC5430895 (Scientific Reports, 2017).

SMILES strings stand for the structures.

Series [1] relates to RASF. The experiment in a line: PDGF-induced proliferation of cultured RASF (cell counting). To be noted: 18 h, PDGF 10 ng/ml. It is filed as cell-based, human. Here is the method: Data are shown as mean ± SEM. […] Cells were grown at standard conditions. […] Cell number was evaluated with a […] cell counter (Roche Innovatis, Reutlingen, Germany).
In series [2] the test system is RASF. As to the kind of experiment: Saracatinib uptake in human RA synovial fibroblasts (HPLC-UV).
Experimental: The kinetic parameters Km and V max values were estimated by least-square nonlinear regression analysis using GraphPadPrism 5 software.
Unpaired student t-test was used for statistical analysis.
Cells were grown at standard conditions. Synovial fibroblasts (SF) were isolated from tissues of patients with rheumatoid arthritis (RA) (n = 8) obtained during joint replacement surgery after written informed consent was obtained. This procedure was approved by the Ethics Committee of the University of Münster, Germany; all methods were performed in accordance with the relevant guidelines and regulations. […] RA patients met the American College of Rheumatology criteria. Isolated fibroblasts were cultured under standard conditions for a maximum of eight passages. When indicated, RASF were incubated with 10 ng/ml TNFα (PeproTech, Hamburg, Germany). Cell number was evaluated with a CASEYTT cell counter (Roche Innovatis, Reutlingen, Germany).
After incubation, cells were washed with ice-cold PBS and hypoosmotic lysis was induced with 0.1% formic acid. […] The mobile phase consisted of (A) acetonitrile with 0.1% formic acid and (B) 0.1% formic acid and was delivered at 0.3 ml/min in a gradient program. After delivering 100% B for 3 min, a linear gradient to 100% A was applied within 7 min and maintained for 5 min. Thereafter, in order to re-equilibrate the column, a simple isocratic elution step with 100% eluent B was applied for at least 6 min. […] Separation was carried out on an Accucore C18 column equipped with a C18 guard column. The data were acquired by ChromQuest 5.0 chromatography software.
A further series deals with T1, hOCTN1 (Homo sapiens, UniProt Q9H015).
T1 sequence (Q9H015 1-551): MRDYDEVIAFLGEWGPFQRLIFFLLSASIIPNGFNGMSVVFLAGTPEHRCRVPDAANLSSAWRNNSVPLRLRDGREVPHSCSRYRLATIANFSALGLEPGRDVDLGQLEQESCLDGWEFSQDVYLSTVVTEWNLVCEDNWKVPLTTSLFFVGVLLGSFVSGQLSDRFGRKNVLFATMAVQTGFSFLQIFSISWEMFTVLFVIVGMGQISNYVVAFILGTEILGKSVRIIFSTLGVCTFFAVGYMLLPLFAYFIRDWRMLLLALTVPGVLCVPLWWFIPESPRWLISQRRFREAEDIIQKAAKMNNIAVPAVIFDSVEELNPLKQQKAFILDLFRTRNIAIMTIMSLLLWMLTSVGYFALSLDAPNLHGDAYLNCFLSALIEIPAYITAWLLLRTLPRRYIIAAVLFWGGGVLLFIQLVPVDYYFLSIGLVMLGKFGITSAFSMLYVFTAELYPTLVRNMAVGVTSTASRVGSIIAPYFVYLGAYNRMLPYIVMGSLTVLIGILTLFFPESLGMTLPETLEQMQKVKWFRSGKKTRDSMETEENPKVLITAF
As to the kind of experiment: Saracatinib uptake in RASF after hOCTN1 siRNA knockdown. The format is in vitro ADME. The arrangement: expressed in transfected cells; host or cells: HEK293, expression induced with 1 mg/l doxycycline. To be noted: RASF 24 h post-transfection with hOCTN1 siRNA.

Series [3] concerns the target T2, hOCT1 (Homo sapiens, UniProt O15245).
T2 sequence (O15245 1-554): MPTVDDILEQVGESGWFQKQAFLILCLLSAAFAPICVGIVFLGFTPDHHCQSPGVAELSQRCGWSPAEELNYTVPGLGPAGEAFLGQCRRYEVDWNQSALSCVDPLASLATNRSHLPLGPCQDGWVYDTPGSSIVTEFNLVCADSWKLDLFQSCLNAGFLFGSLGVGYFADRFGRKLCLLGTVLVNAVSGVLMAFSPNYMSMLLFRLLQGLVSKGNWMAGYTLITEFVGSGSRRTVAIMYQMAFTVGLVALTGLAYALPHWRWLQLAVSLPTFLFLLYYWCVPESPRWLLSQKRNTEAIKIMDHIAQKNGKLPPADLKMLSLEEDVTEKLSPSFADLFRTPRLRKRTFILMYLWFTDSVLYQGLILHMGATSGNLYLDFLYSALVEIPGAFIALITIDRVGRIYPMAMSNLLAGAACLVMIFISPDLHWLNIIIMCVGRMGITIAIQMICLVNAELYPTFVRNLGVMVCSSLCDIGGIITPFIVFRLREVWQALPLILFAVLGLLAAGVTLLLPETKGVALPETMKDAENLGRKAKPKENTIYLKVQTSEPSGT
As to the kind of experiment: Inhibition of ASP+ uptake in hOCT1-HEK293 cells (apparent affinity). The format is cell-based. On the set-up: expressed in transfected cells; host or cells: HEK293. As to conditions: hOCT1-HEK293, ASP+ 1 µM.

Series [4] deals with T2, hOCT1. As to the kind of experiment: Saracatinib uptake in hOCT1-overexpressing HEK293 cells (HPLC-UV). As to conditions: hOCT1-HEK293, 10 µM saracatinib, 10 min, difference of accumulation at 4 °C and 37 °C.
For a further series, the target named is T3, hOCT3 (Homo sapiens, UniProt O75751).
T3 sequence (O75751 1-556): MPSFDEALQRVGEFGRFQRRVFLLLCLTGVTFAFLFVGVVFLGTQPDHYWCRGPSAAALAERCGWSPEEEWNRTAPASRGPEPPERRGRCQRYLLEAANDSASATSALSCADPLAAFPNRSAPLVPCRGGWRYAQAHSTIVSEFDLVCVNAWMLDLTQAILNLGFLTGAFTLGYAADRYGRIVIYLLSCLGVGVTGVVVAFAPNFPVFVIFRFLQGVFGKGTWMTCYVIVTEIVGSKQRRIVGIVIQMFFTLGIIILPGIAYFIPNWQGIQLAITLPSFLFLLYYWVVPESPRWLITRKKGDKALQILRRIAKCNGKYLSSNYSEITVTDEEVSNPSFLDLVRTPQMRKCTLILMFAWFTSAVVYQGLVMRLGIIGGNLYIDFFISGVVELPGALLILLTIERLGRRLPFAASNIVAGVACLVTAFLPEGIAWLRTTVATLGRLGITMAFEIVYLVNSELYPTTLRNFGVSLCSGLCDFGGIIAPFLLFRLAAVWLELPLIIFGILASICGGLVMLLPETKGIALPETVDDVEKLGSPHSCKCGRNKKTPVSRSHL
As to the kind of experiment: Saracatinib uptake in hOCT3-overexpressing HEK293 cells (HPLC-UV). To be noted: hOCT3-HEK293, 10 µM saracatinib, 10 min, difference of accumulation at 4 °C and 37 °C.

`CN1CCN(CCOc2cc(OC3CCOCC3)c3c(Nc4c(Cl)ccc5c4OCO5)ncnc3c2)CC1` [saracatinib, N-(5-chloro-1,3-benzodioxol-4-yl)-7-[2-(4-methylpiperazin-1-yl)ethoxy]-5-(tetrahydro-2H-pyran-4-yloxy)quinazolin-4-amine]: the “inhibition of PDGF-induced cell proliferation” value in the series with RASF [1] (0.1 µM saracatinib) was “Complete inhibition”; in the series on RASF [1] (0.001–1 µM saracatinib) it was “potent and dose-dependent inhibition”. In addition, the “influence of extracellular pH on saracatinib uptake” value with RASF [2] (RASF) was “pH-dependent”. Moreover, in the series on RASF [2] (RASF treated for 18 h with TNFα (10 ng/ml)), the “increase of saracatinib uptake versus untreated controls” value is 36 ± 5%. Besides, the “saracatinib transport capacity (Vmax)” value in the series with RASF [2] (RASF, 10 min incubation) came to 71.6 ± 4.1 nmol/mg protein/10 min. In addition, the Km in the series with RASF [2] (read-out: Km of saracatinib uptake, RASF, 10 min incubation) was 39.4 ± 9.4 µM. The compound further returned an uptake of saracatinib on hOCTN1 of 2.6 ± 0.8 nmol/mg protein. Also, at hOCTN1, the “uptake of saracatinib, % remaining versus scramble siRNA” value is 26%. In addition, at hOCT1 [3], the IC50 was 57 µM. Further, the figures for the “saracatinib accumulation (specific uptake)” value at hOCT1 [4] and on hOCT3 were 8.8 ± 0.9 nmol/mg protein and 5.7 ± 0.1 nmol/mg protein, respectively.
